Measurements published in patent US11382850B2, “Compositions and methods for inhibiting growth of caries-, gingivitis- and halitosis-causing bacteria” (DoseBiome Inc., priority 2019, dated 2022).

Assays:
Format in all cases: cell-based
[1] = tested on: Porphyromonas gingivalis ATCC 33277; assay: Growth inhibition assay, P. gingivalis (colony counts normalized to pH-matched Schaedler's broth)
Experimental: Solobacterium moorei DSM 22971 and Porphyromonas gingivalis ATCC 33277 were grown in Schaedler's broth (Himedia) or Brucella blood agar with hemin and vitamin K (Hardy Diagnostics) under anaerobic conditions at 37° C. Anaerobic conditions were maintained using the Anaerogen atmosphere generation system (Oxoid). Streptococcus mutans UA159 were grown in Brain Heart Infusion (BHI; Hardy Diagnostics) under 5% CO2 at 37° C. Various concentrations of xylitol (Acros Organics), erythritol (Acros Organics) and/or polyphenon 60 (Sigma) were dissolved in Schaedler's broth or BHI broth. […] The mixtures were pH adjusted using either hydrochloric acid or sodium hydroxide to a final pH of 6.5±0.1, 7.5±0.1 or 8.5±0.1. All test products were filter-sterilized after pH adjustment. […] After 48 h of incubation, various dilutions of the cells were spotted into Brucella blood agar with hem in and vitamin K, and incubated for 48 h for S. moorei, and for 72 h for P. gingivalis. Cell counts were normalized against growth in Schaedler's broth adjusted to their respective testing pH. […] The percent inhibition was measured by normalizing the results against P. gingivalis grown in media with the corresponding pH adjustment. […] The percent inhibition was measured by normalizing the results against P. gingivalis grown in media with the corresponding pH adjustment.

[2] = tested on: Streptococcus mutans UA159; assay: Growth inhibition assay, S. mutans (colony counts normalized to pH-matched BHI); details: 1% (w/v) or 10% (w/v) sugar alcohol alone, pH 6.5, 7.5 or 8.5
[3] = tested on: Solobacterium moorei DSM 22971; assay: Growth inhibition assay, S. moorei (colony counts normalized to pH-matched Schaedler's broth)
Experimental: Solobacterium moorei DSM 22971 and Porphyromonas gingivalis ATCC 33277 were grown in Schaedler's broth (Himedia) or Brucella blood agar with hemin and vitamin K (Hardy Diagnostics) under anaerobic conditions at 37° C. Anaerobic conditions were maintained using the Anaerogen atmosphere generation system (Oxoid). Streptococcus mutans UA159 were grown in Brain Heart Infusion (BHI; Hardy Diagnostics) under 5% CO2 at 37° C. Various concentrations of xylitol (Acros Organics), erythritol (Acros Organics) and/or polyphenon 60 (Sigma) were dissolved in Schaedler's broth or BHI broth. […] The mixtures were pH adjusted using either hydrochloric acid or sodium hydroxide to a final pH of 6.5±0.1, 7.5±0.1 or 8.5±0.1. All test products were filter-sterilized after pH adjustment. […] After 48 h of incubation, various dilutions of the cells were spotted into Brucella blood agar with hem in and vitamin K, and incubated for 48 h for S. moorei, and for 72 h for P. gingivalis. Cell counts were normalized against growth in Schaedler's broth adjusted to their respective testing pH. […] The percent inhibition was measured by normalizing the results against S. moorei grown in media with the corresponding pH adjustment. […] The percent survival was measured by normalizing the results against S. moorei grown in media with the corresponding pH adjustment. […] The percent inhibition was measured by normalizing the results against S. moorei grown in media with the corresponding pH adjustment. An upper limit of 0.1 mg/mL polyphenon 60 was used in order to be able to assess the pH effects.

[4] = 10% sugar alcohol alone, pH 6.5
[5] = 10% sugar alcohol alone, pH 7.5
[6] = 10% sugar alcohol alone, pH 8.5

| SMILES | Survival of P. gingivalis ([1]; 1% sugar alcohol alone, pH 6.5) [%] | Survival of P. gingivalis ([1]; 1% sugar alcohol alone, pH 7.5) [%] | Survival of P. gingivalis ([1]; 1% sugar alcohol alone, pH 8.5) [%] | Survival of P. gingivalis [1, 4] [%] | Survival of P. gingivalis [1, 5] [%] | Survival of P. gingivalis [1, 6] [%] | inhibitory activity on growth of S. mutans [2] | S. moorei survival ([3]; 1% sugar alcohol alone, pH 6.5) [%] | S. moorei survival ([3]; 1% sugar alcohol alone, pH 7.5) [%] | S. moorei survival ([3]; 1% sugar alcohol alone, pH 8.5) [%] | S. moorei survival [3, 4] [%] | S. moorei survival [3, 5] [%] | S. moorei survival [3, 6] [%] | inhibition of S. moorei growth ([3]; on its own at varying concentrations, any pH) |
| --- | --- | --- | --- | --- | --- | --- | --- | --- | --- | --- | --- | --- | --- | --- |
| OC[C@@H](O)[C@H](O)[C@@H](O)CO [xylitol] | 69.8 | 63.2 | 60.0 | 14.3 | 8.9 | 7.4 | had inhibitory activity | 52.0 | 53.3 | 17.3 | 52.6 | 53.6 | 26.8 | – |
| OC[C@@H](O)[C@@H](O)CO [erythritol] | 92.1 | 75.4 | – | 41.1 | 19.9 | 13.6 | inhibit growth | – | – | – | 140.4 | 156.9 | 162.0 | did not inhibit |
